Laboratory results reported in the RepoRT retention time repository (doi:10.1016/j.foodchem.2021.129757).

Key:
Conditions in all cases: stereoisomer not certain
[1] = RP, 100 × 0.5 mm, 2.7 µm, 45 °C, 0.015 mL/min, estimated dead time 0.83 min; A: water + 0.9% formic acid; B: acetonitrile + 0.9% formic acid; gradient (min/%B) 0/1 0.5/1 4/95 4.5/1 5/1
[2] = RP, 50 × 0.5 mm, 2.7 µm, 35 °C, 0.01 mL/min, estimated dead time 0.62 min; A: water + 0.1% formic acid, pH 3; B: acetonitrile + 0.1% formic acid, pH 3; gradient (min/%B) 0/5 12/95 14/95 16/5
[3] = RP, 150 × 2.1 mm, 2.6 µm, 40 °C, 0.35 mL/min, estimated dead time 0.94 min; A: water + 0.1% formic acid, pH 3; B: acetonitrile + 0.1% formic acid, pH 3; gradient (min/%B) 0/0 1/0 12.5/100 14/100 14.2/0 15/0
[4] = RP, 150 × 2.1 mm, 2.6 µm, 40 °C, 0.35 mL/min, estimated dead time 0.94 min; A: water + 0.1% formic acid, pH 3; B: acetonitrile + 0.1% formic acid, pH 3; gradient (min/%B) 0/0 1/5 7/45 8.5/80 10.5/80 11/5 12/5
[5] = RP, Phenomenex Synergi Hydro-RP, 150 × 2 mm, 4 µm, 30 °C, 0.5 mL/min, estimated dead time 0.6 min; A: water + 0.1% formic acid, pH 3; B: acetonitrile + 0.1% formic acid, pH 3; gradient (min/%B) 0/5 1/5 35/45 40/100 45/100
[6] = RP, Phenomenex Luna Omega Polar C18, 100 × 2.1 mm, 1.6 µm, 40 °C, 0.5 mL/min, estimated dead time 0.44 min; A: water + 0.5% formic acid; B: acetonitrile + 0.5% formic acid; gradient (min/%B) 0/5 3/50 3.1/100 5/100 5.1/5 7/5
[7] = RP, Phenomenex Luna C18, 150 × 4.6 mm, 3 µm, 25 °C, 0.5 mL/min, estimated dead time 3.2 min; A: water + 0.1% formic acid, pH 3; B: acetonitrile + 0.1% formic acid, pH 3; gradient (min/%B) 0/0 30/30 35/40 50/80 52/80 60/0 65/0
[8] = RP, Phenomenex Luna Omega Polar C18, 100 × 2.1 mm, 1.6 µm, 40 °C, 0.5 mL/min, estimated dead time 0.44 min; A: water + 0.1% formic acid + 10 mM ammonium formate; B: acetonitrile; gradient (min/%B) 0/5 8/20 10/100 12/100 12.1/5 14/5
[9] = RP, Waters ACQUITY UPLC HSS T3, 100 × 2.1 mm, 1.8 µm, 30 °C, 0.4 mL/min, estimated dead time 0.55 min; A: water + 0.1% formic acid, pH 3; B: acetonitrile + 0.1% formic acid, pH 3; gradient (min/%B) 0/0 2/0 15/100 22/100 22.1/0 26/0
[10] = RP, Agilent ZORBAX Eclipse XDB-C18, 100 × 2.1 mm, 1.8 µm, 50 °C, 0.4 mL/min, estimated dead time 0.55 min; A: water + 0.1% formic acid, pH 3; B: methanol + 0.1% formic acid, pH 3; gradient (min/%B) 0/2 10/100 14.5/100 14.51/2 16.5/2
[11] = RP, Waters ACQUITY UPLC BEH C18, 100 × 2.1 mm, 1.7 µm, 65 °C, 0.4 mL/min, estimated dead time 0.55 min; A: water + 0.1% formic acid, pH 3; B: 80% acetonitrile + 20% acetone + 0.1% formic acid, pH 3; gradient (min/%B) 0/0 5/100 5.5/0 6/0
[12] = RP, Waters ACQUITY UPLC BEH Shield RP18, 100 × 2.1 mm, 1.7 µm, 30 °C, 0.6 mL/min, estimated dead time 0.37 min; A: water + 0.1% formic acid, pH 3; B: acetonitrile + 0.1% formic acid, pH 3; gradient (min/%B) 0/0 2/0 7/10 22/95 22.1/0 26/0
[13] = RP, Waters ACQUITY UPLC BEH Shield RP18, 150 × 2.1 mm, 1.7 µm, 40 °C, 0.4 mL/min, estimated dead time 0.83 min; A: water + 0.1% formic acid, pH 3; B: acetonitrile + 0.1% formic acid, pH 3; gradient (min/%B) 0/0 30/50 31/100 37/100 37.1/0
[14] = RP, Agilent InfinityLab Poroshell 120 EC-C18, 100 × 3 mm, 2.7 µm, 25 °C, 0.4 mL/min, estimated dead time 1.1 min; A: water + 0.1% formic acid, pH 3; B: acetonitrile + 0.1% formic acid, pH 3; gradient (min/%B) 0/5 10/25 20/40 24/90 25/90 26/5 30/5
[15] = RP, Phenomenex Synergi Hydro-RP, 250 × 2 mm, 4 µm, 25 °C, 0.2 mL/min, estimated dead time 2.5 min; A: water + 0.1% formic acid, pH 3; B: acetonitrile + 0.1% formic acid, pH 3; gradient (min/%B) 0/0.5 7/0.5 12/12.5 25/16.3 47/35 48/65 50/65 50.1/0.5
[16] = RP, Waters Atlantis T3, 100 × 2.1 mm, 3 µm, 40 °C, 0.3 mL/min, estimated dead time 0.73 min; A: water + 0.1% trifluoroacetic acid, pH 2; B: acetonitrile + 0.1% trifluoroacetic acid, pH 2; gradient (min/%B) 0/10 1/10 6/40 7/50 8/50 14/70 16/80 20/10 25/10
[17] = RP, Agilent ZORBAX RRHD Eclipse Plus C18, 50 × 2.1 mm, 1.8 µm, 30 °C, 0.4 mL/min, estimated dead time 0.28 min; A: water + 0.1% formic acid, pH 3; B: acetonitrile + 0.1% formic acid, pH 3; gradient (min/%B) 0/1 5/10 8/25 9.1/99 10/99 12/1
[18] = RP, Agilent ZORBAX RRHD Eclipse Plus C18, 50 × 2.1 mm, 1.8 µm, 30 °C, 0.4 mL/min, estimated dead time 0.28 min; A: water + 0.1% formic acid, pH 3; B: acetonitrile + 0.1% formic acid, pH 3; gradient (min/%B) 0/1 5/10 8/25 9.1/99 10/99 12/99

SMILES | LC retention time [1] [min] | LC retention time [2] [min] | LC retention time [3] [min] | LC retention time [4] [min] | LC retention time [5] [min] | LC retention time [6] [min] | LC retention time [7] [min] | LC retention time [8] [min] | LC retention time [9] [min] | LC retention time [10] [min] | LC retention time [11] [min] | LC retention time [12] [min] | LC retention time [13] [min] | LC retention time [14] [min] | LC retention time [15] [min] | LC retention time [16] [min] | LC retention time [17] [min] | LC retention time [18] [min]
O=C(O)Cc1ccc(O)cc1 [4-Hydroxyphenylacetic acid] | 2.71 | 2.53 | 4.61 | 4.34 | 11.9 | 1.15 | 14.7 | 3.36 | 8.37 | 3.26 | 1.76 | 7.43 | 5.41 | 6.13 | 20.4 | – | – | –
O=c1ccc2c(O)c3ccoc3cc2o1 [Bergaptol] | 3.08 | 5.42 | – | – | 21.6 | 3.25 | 37.6 | 9.43 | 11 | 6.04 | – | 14.7 | 17.9 | 13.9 | – | – | – | –
O=C(O)CCc1ccc(O)c(O)c1 [Dihydrocaffeic acid] | 2.4 | 2.6 | – | – | 14.6 | 2.6 | 14.2 | 3.46 | 8.3 | 3.33 | 1.69 | 8.08 | 5.6 | 6.04 | 20.1 | – | 5.05 | 2.11
O=C(O)CCc1ccc(O)cc1 [Phloretic acid] | 2.32 | 3.41 | – | – | 11.7 | 2.19 | 19.9 | 5.01 | 9.17 | 4.09 | 2.09 | 10.4 | 6.46 | 7.93 | 26 | – | 6.75 | 6.26
O=S(=O)(O)Oc1c(O)cccc1O [Pyrogallol 2-O-sulfate] | 2.2 | 1.4 | – | – | – | 1.49 | 18.4 | 1.61 | 6.13 | 1.76 | – | – | 7.61 | 3.99 | – | – | 2.36 | 1.34
O=c1oc2cc(O)ccc2c2ccccc12 [Urolithin B] | 3.47 | 6.54 | – | – | – | 3.72 | 44.4 | 9.78 | 12.2 | 7.19 | – | 16 | 22.6 | 18.8 | – | – | – | –
COc1ccc(C(=O)O)cc1OC [Veratric acid] | 2.4 | 4.19 | – | – | – | – | 24.9 | 6.87 | 9.65 | 4.84 | – | 12 | – | 9.51 | 33 | – | – | –

The remaining lines, values ahead:

LC retention time [1] [min] | LC retention time [2] [min] | LC retention time [3] [min] | LC retention time [4] [min] | LC retention time [5] [min] | LC retention time [6] [min] | LC retention time [7] [min] | LC retention time [8] [min] | LC retention time [9] [min] | LC retention time [10] [min] | LC retention time [11] [min] | LC retention time [12] [min] | LC retention time [13] [min] | LC retention time [14] [min] | LC retention time [15] [min] | LC retention time [16] [min] | LC retention time [17] [min] | LC retention time [18] [min] | SMILES
2.89 | 4.87 | 6.07 | 6.23 | 17.9 | 2.6 | 27.6 | 9.12 | 9.6 | 5.5 | – | 13.5 | 14.3 | 10.7 | – | 7.96 | – | – | O=c1cc(-c2ccc(O)cc2)oc2cc(OC3OC(CO)C(O)C(O)C3O)cc(O)c12 (configuration not stated) [Apigenin 7-O-glucoside]
3.75 | 7.99 | – | – | 37.7 | 3.84 | 48.7 | 10.1 | 13.6 | 8.13 | – | 18.2 | 13 | 22.9 | – | – | – | – | COc1cc(C=CC(=O)CC(=O)C=Cc2ccc(O)c(OC)c2)ccc1O [Curcumin]
3.27 | 6.17 | 7.8 | 8.21 | 26.6 | 3.57 | 42.5 | 9.67 | 11.7 | 6.64 | 2.93 | 15.5 | 21.2 | 17.4 | 51.9 | 10.4 | – | 9.29 | COc1ccc(C2CC(=O)c3c(O)cc(O)cc3O2)cc1O (configuration not stated) [Hesperetin]
2.39 | 4.81 | – | – | 17.4 | 2.53 | 27.4 | 8.58 | 9.51 | 5.52 | – | 13.7 | 15.2 | 10.5 | – | – | 8.37 | 8.79 | O=C(O)C1OC(Oc2c(-c3ccc(O)cc3)oc3cc(O)cc(O)c3c2=O)C(O)C(O)C1O (configuration not stated) [Kaempferol-3-O-glucuronide]
2.53 | 4.38 | – | – | 16 | 2.41 | 24.4 | 8.12 | 9.38 | 4.3 | – | 13.1 | – | 9.7 | – | – | 8.05 | – | Oc1cc(O)c2c(c1)OC1(c3ccc(O)c(O)c3)Oc3cc(O)c4c(c3C2C1O)OC(c1ccc(O)c(O)c1)C(O)C4 (configuration not stated) [Procyanidin A2]
